The nature of the data set: physchem. The following applies: octan-1-ol/water.

As for `COc1cc(C(=O)NS(=O)(=O)c2ccccc2)ccc1Cn1cnc2ccc(NC(=O)CC3CCCC3)cc21`, the logD (pH 7.4, LogD7.4) came to 0.9.
The same measure, in the same setting: with `O=c1[nH]ccc2nc(-c3ccc(CN4CCC(c5n[nH]c(-c6ccccn6)n5)CC4)cc3)c(-c3ccccc3)cc12` the figure was 3.9; with `CN1CCN(c2nc(NCCNc3ccc([N+](=O)[O-])cc3)c3ccccc3n2)CC1`, 2.91.
Still for that read-out and setting: then `COc1cc2c(Nc3ccc(Cl)cc3F)ncnc2cc1OCCn1cncn1`, with 3.2.
Consider `CCC(=O)NCC[C@@H]1CCc2ccc3c(c21)CCO3` [RAMELTEON], for which, where the note is “pH 7.4, LogD7.4”, the logD worked out at 2.57.
The same measure, in the same setting: then `O=C(N[C@@H](Cc1ccc(OCCNc2ccccn2)cc1)C(=O)O)c1c(Cl)cccc1Cl`, with -0.48.
Where the note is “pH 7.4”, `NC(Cc1ccccc1)c1ccccc1` (stereo not given) returned a logD of 1.32.
Regarding `Cc1oc(S(C)(=O)=O)cc1-c1c2c(=O)n(C)c(=O)n(CC3CC3)c2nn1Cc1ccnc2ccc(Cl)cc12`, the logD (pH 7.4, LogD7.4) is 3.2.
Still for that read-out and setting: then `CC(C)[N+](C)(CCOC(=O)C1c2ccccc2Oc2ccccc21)C(C)C` [PROPANTHELINE], with 0.2.
Still for that read-out and setting: with `O=C(NCCCN1CCCCC1)C(c1ccccc1)c1ccccc1` the figure was 1.33.
Regarding `COc1ccccc1N1CCN(Cc2c(Br)c(=O)n(-c3ccccc3)n2C)CC1`, the logD (pH 7.4, LogD7.4) was found to be 2.5.
The same measure, in the same setting: with `FC(F)(F)c1nnc2ccc(-n3ccnc3)nn12` the figure was 0.91.
As for `CN(Cc1ccc(Cl)cc1)C(=O)C1(N)CCN(c2ncnc3[nH]ccc23)CC1`, the logD (pH 7.4, LogD7.4) is 2.8.
Same read-out and setting: then `O=C(CC1CCN(Cc2ccn(-c3ccc(C(F)(F)F)cc3)c2)CC1)N(CCCO)Cc1ccc(F)cc1`, with 3.04.
Where the note is “pH 7.4”, `NC(=O)c1cccc(O[C@H]2C[C@H]3CC[C@@H](C2)N3Cc2ccccc2)n1` returned a logD of 1.71.
Where the note is “pH 7.4, LogD7.4”, `CCCN(C)c1nc(N2CCC[C@@H](CC(=O)O)C2)ccc1C(=O)NC1CCCCC1` had a logD of 2.28.
Under “pH 7.4, LogD7.4”, `COc1ccc(C(=O)Nc2cc(NC(=O)c3cccc(N(C)C)c3)ccc2C)cc1OC` yielded a logD of 3.12.
Still for that read-out and setting: with `Nc1cccc(C(=O)NCC23CC4CC(CC(C4)C2)C3)c1Cl` the figure was 3.29; with `Cn1c(N)nc(CCc2cccc(-c3cccnc3)c2)cc1=O`, 2.5; with `CC(=O)N1CCOc2cc(COc3ccccc3)cnc21`, 2.8.
`CCCN(CCC)C(=O)c1cccc(C(=O)N[C@@H](Cc2ccccc2)[C@H](O)CNC2Cc3ccccc3C2)c1`: where the note is “pH 7.4, LogD7.4”, the logD was determined as 3.3.
On the same count and under the same terms, then `Nc1ccc2[nH]c(Cc3ccc(Oc4ccccc4)cc3)nc2c1`, with 3.8; and `Cn1cc(C#N)cc1-c1c2c(=O)n(CC#CCn3cncn3)c(=O)n(CC3CC3)c2nn1Cc1ccnc2ccc(Cl)cc12`, with 3.43.
Same read-out and setting: then `Cn1cc(-c2cccc(C[C@H](NC(=O)c3cc(C(C)(C)C)nn3C)C(=O)NCC#N)c2)cn1`, with 2.6.
For the setting “pH 7.4”, `O=C1O[C@]2(CN3CCC2CC3)CN1c1ccc(Br)s1` returned a logD of 2.
`COc1cc(N2CC[C@@H](N(C)C)C2)c2[nH]c(C(=O)Nc3ccc(N4CCOCC4)cc3)cc(=O)c2c1` returned a logD (pH 7.4, LogD7.4) of 2.7.
Same read-out and setting: then `COCCC(=O)N[C@@H](C)c1ccc(Nc2ncc3cc(-c4ccncc4)ccc3n2)cc1`, with 3.05.
Still for that read-out and setting: with `COCCC(NC(=O)C1(N)CCN(c2ncnc3[nH]ccc23)CC1)c1ccc(Cl)cc1` (stereo not given) the figure was 2.95; with `CC(O)(C(=O)Nc1ccc(S(=O)(=O)c2ccc(O)cc2)cc1)C(F)(F)F` (stereo not given), 2.78.
Same read-out and setting: then `CCC1(c2ccccc2)NC(=O)N(C)C1=O` (stereo not given) [MEPHENYTOIN], with 1.59; and `COc1ccc(-c2nc3c(NCCCNC(=O)C4CC4)c(Br)cnc3[nH]2)cc1`, with 1.71; and `C[C@@](O)(C(=O)Nc1ccc(S(=O)(=O)NCCN2CCOCC2)cc1Cl)C(F)(F)F`, with 2.14.
In turn, `COc1cc(N2CCN(C)CC2)c2[nH]c(C(=O)Nc3ccc(N4CCOCC4)cc3)cc(=O)c2c1` came in with a logD (pH 7.4, LogD7.4) of 2.7.
In turn, `CCCNC(=O)c1nnc2c(-c3ccccc3)cccc2c1N` showed a logD (pH 7.4, LogD7.4) of 3.8.
On the same count and under the same terms, with `O=c1[nH]c2c(O)ccc([C@@H](O)CNCCCOCCOCCc3cccc4ccccc34)c2s1` the figure was 2.28; with `Cn1cnc2cc(C#Cc3ccccc3)cnc21`, 3.5.
Same read-out and setting: with `Fc1cc(F)cc(-c2cc(N(CCCN3CCCCCC3)Cc3ccc4c(c3)OCO4)on2)c1` the figure was 3.84.
Still for that read-out and setting: then `CC(C)C(NC(=O)Cn1c(-c2ccccc2)cc2c(=O)n(CCN3CCOCC3)c(=O)[nH]c2c1=O)C(=O)C(F)(F)F` (stereo not given), with 1.91; and `NC(=O)Nc1cc(-c2cccc(O)c2)sc1C(N)=O`, with 2.21; and `COc1cc(N2CCN(C(C)=O)CC2)ccc1Nc1ncc(Cl)c(-c2cnc3cc(C)ccn23)n1`, with 3.3.
Consider `CN[C@@H](C)C(=O)N[C@H](C(=O)N[C@H]1CCCN(CCc2ccc(O)cc2)C1)C(C)(C)C`, for which the logD (pH 7.4, LogD7.4) amounted to 0.77.
Same read-out and setting: with `CCN(C(=O)Cc1ccc(C#N)cc1)C1CCN(CCC(c2ccccc2)c2ccccc2)CC1` the figure was 3.9; with `COc1ccc(C(=O)Nc2cc(NC(=O)c3cccc(N(C)C)c3)ccc2C)cc1`, 3.17.
On the same count and under the same terms, with `Cc1oc(-c2ccc(Cl)cc2)cc1C(=O)O` the figure was 1.67; with `CCC[C@H](CO)Nc1nc(SCc2ccccc2)nc2nc(N)sc12`, 3.8.
With `O=C(NC[C@@H](O)CN1CCC(Oc2ccc(Cl)c(Cl)c2)CC1)c1c[nH]c(=O)c2ccc(F)cc12`, the logD (pH 7.4, LogD7.4) amounted to 3.93.
Under “pH 7.4, LogD7.4”, `Nc1cc2n[nH]c(=O)n2c2cc(-c3ccco3)ccc12` registered a logD of 2.48.
Consider `CC(=N)NCc1ccccc1`, for which the logD (pH 7.4, LogD7.4) was -0.28.
Same read-out and setting: then `C[C@@](Cc1ccc(O)c(O)c1)(NN)C(=O)O` [CARBIDOPA ANHYDROUS], with -0.7.
In the case of `CNC1=Nc2ncccc2C(c2ccco2)=NC1c1cccs1` (stereo not given), the logD (pH 7.4) was 1.85.
The same measure, in the same setting: then `O=C(c1ccc(C(=C2CCN(Cc3cscn3)CC2)c2cccc3cccnc23)cc1)N1CCCC1`, with 2.75.
Take `CCN(CC)CCNC(=O)c1cc(Br)c(N)cc1OC` [BROMOPRIDE]: for the setting “pH 7.4, LogD7.4”, the logD amounted to 0.54.
Still for that read-out and setting: with `Oc1nc2ccccc2nc1NCc1ccccc1` the figure was 3.3; with `CN(C)CC(O)COc1ccc(Nc2cc(Nc3ccc(F)cc3F)ncn2)cc1` (stereo not given), 1.48; with `COc1cc2c(N3CCN(C(=O)Nc4ccc(OC(C)C)cc4)CC3)ncnc2cc1OCCCN1CCCCC1` [TANDUTINIB], 2.6.
The same measure, in the same setting: with `CNc1nc2ccccc2n1Cc1sc2c(c1C(=O)N1C[C@H](O)CO1)c(=O)n(C)c(=O)n2CC(C)C` the figure was 1.77.
Still for that read-out and setting: then `Cc1nc(CS(=O)(=O)c2ccccc2)cc(N2CCOCC2)n1`, with 1.07; and `N=C(N)Nc1ccc(C(=O)Oc2ccc([N+](=O)[O-])cc2)cc1`, with 0.5.
For `OCCOCCN1CCN(C(c2ccccc2)c2ccc(Cl)cc2)CC1` (stereo not given) [HYDROXYZINE], the logD (pH 7.4, LogD7.4) stood at 3.08.
`NC1(C(=O)NC(CO)c2ccc(Cl)cc2)CCN(c2ncnc3[nH]ccc23)CC1` (stereo not given) showed a logD (pH 7.4, LogD7.4) of 2.4.
The same measure, in the same setting: with `Cc1cc(Nc2ncc(F)c(-c3cnc(C)n3C(C)C)n2)ccc1C(=O)N(C)C` the figure was 2.86.
Same read-out and setting: with `CC1CN(Cc2cc(Cl)ccc2OCC(=O)O)CCN1S(=O)(=O)c1ccccc1` (stereo not given) the figure was 0.31; with `CCN(C(=O)Nc1ccccc1)c1ccccc1`, 3.1.
Same read-out and setting: with `CC(C)C(NC(=O)Cn1c(-c2ccccc2)ccc(NC(=O)Cc2ccccc2C(=O)O)c1=O)C(=O)C(F)(F)F` (stereo not given) the figure was 1.14; with `CN[C@@H](C)C(=O)N[C@H](C(=O)N[C@H]1CCCN(CCc2ccc(OC)cc2)C1)C(C)(C)C`, 1.45.
The molecule `O=C(N[C@@H](c1ccccc1)[C@@H]1CCCCN1)c1cccc(C(F)(F)F)c1Cl` had a logD (pH 7.4, LogD7.4) of 2.61.
Same read-out and setting: with `O=C([C@@H](O)CO)N1CC=C(c2ccc(N3C[C@H](COc4ccon4)OC3=O)cc2F)CC1` the figure was 1.09.
Under “pH 7.4, LogD7.4”, `O=C(Nc1nc(-c2ccccc2)cs1)c1cccnc1` displayed a logD of 3.62.
The same measure, in the same setting: with `NC1(C(=O)NC(c2ccccc2)c2ccc(Cl)cc2)CCN(c2ncnc3[nH]ccc23)CC1` (stereo not given) the figure was 4.1; with `COc1ccc(C(=O)NCc2cccnc2)cc1C(=O)NCc1cccnc1` [PICOTAMIDE], 1.23; with `Nc1n[nH]cc1-c1cc(C(F)(F)F)ccc1Oc1cc(F)c(S(=O)(=O)Nc2cscn2)cc1Cl`, 2.65.
The same measure, in the same setting: then `CC(O)(C(=O)Nc1ccc(S(=O)(=O)c2ccccc2)cc1)C(F)(F)F` (stereo not given), with 2.98.
Still for that read-out and setting: then `O=C1C(=O)c2cc([N+](=O)[O-])ccc2-c2ccccc21`, with 2.42; and `N[C@H](CNC(=O)c1cc2c(-c3ccccc3Cc3ccccc3)cccc2[nH]1)C(=O)O`, with 3.25; and `COc1cc(N2CCN(CCS(C)(=O)=O)CC2)ccc1Nc1ncc(Cl)c(-c2cnc3ccccn23)n1`, with 3.1.
Consider `COc1cc(N2CCN(C(C)=O)CC2)ccc1Nc1ncc(Cl)c(-c2cnc3cc(C#N)ccn23)n1`, for which the logD (pH 7.4, LogD7.4) amounted to 2.3.
`CC(=O)NC1CC(C)N(C(=O)c2ccccc2)c2ccccc21` (stereo not given): the logD (pH 7.4, LogD7.4) was determined as 2.
Still for that read-out and setting: then `Cc1nc2nc(NC(=O)c3ccc(F)cc3)nn2c(O)c1Cc1ccccc1`, with 2.2.
Molecule `Cn1c(=O)n(Cc2ccc(Br)cc2)c2ccccc21` had a logD (pH 7.4) of 2.81.
Consider `O=C(COCc1ccncc1)N1CCC(c2ccc(Cl)cc2)CC1`, for which the logD (pH 7.4, LogD7.4) was 2.74.
The same measure, in the same setting: with `COc1ccc2c(C)cc(N[C@H]3CCC[C@H](NCc4ccsc4)C3)nc2c1` the figure was 2.46.
On the same count and under the same terms, with `O=C1c2ccc(O)cc2C(=O)N1c1ccc(O)cc1F` the figure was 2.1.
On the same count and under the same terms, then `N#Cc1ccc(-c2csc(Nc3ccc(O)cc3)n2)cc1`, with 4.1.
`COc1ccc2c(C)cc(N[C@H]3CC[C@H](NCc4cn(C)c5ccccc45)C3)nc2c1` registered a logD (pH 7.4, LogD7.4) of 2.53.
The same measure, in the same setting: with `O=S(=O)(NCC(c1ccccc1)N1CCCCCC1)c1cccc(C(F)(F)F)c1` (stereo not given) the figure was 3.12.
Still for that read-out and setting: then `Cn1cncc1-c1c2c(=O)n(CC#CCO)c(=O)n(CC3CC3)c2nn1Cc1ccnc2ccc(Cl)cc12`, with 2.55.
On the same count and under the same terms, then `CN[C@@H](C)C(=O)N[C@H](C(=O)N[C@H]1CCCN(CCCc2ccccc2)C1)C1CCCCC1`, with 2.6; and `CC[S+]([O-])c1ncccc1C1(O)CCN(CC23CC(c4ccccc42)c2ccccc23)CC1` (stereo not given), with 2.
The molecule `COc1c(N2CCO[C@@H](CN(C)C)C2)c(F)cc2c(=O)c(C(=O)O)cn(C3CC3)c12` came in with a logD (pH 7.4, LogD7.4) of -0.62.
The same measure, in the same setting: with `O=C1c2ccc(O)cc2C(=O)N1c1ccccc1` the figure was 2.3.

The term logD denotes the decadic logarithm of the distribution of all forms, ionised or not, between an organic phase and buffer at a given pH. Low values mean lower lipophilicity, high ones higher lipophilicity.

These data come from ChEMBL document CHEMBL3301361, “Experimental in vitro DMPK and physicochemical data on a set of publicly disclosed compounds”.
